Measured values: patent US20250145598A1, “ACID CERAMIDASE INHIBITORS AND USES THEREOF” (The Regents of the University of California, priority 2021, published 2025)
pIC50: −log10 of the molar value.

Molecular target: T1, Acid ceramidase (Homo sapiens, UniProt Q13510)
T1 sequence (Q13510 22-395): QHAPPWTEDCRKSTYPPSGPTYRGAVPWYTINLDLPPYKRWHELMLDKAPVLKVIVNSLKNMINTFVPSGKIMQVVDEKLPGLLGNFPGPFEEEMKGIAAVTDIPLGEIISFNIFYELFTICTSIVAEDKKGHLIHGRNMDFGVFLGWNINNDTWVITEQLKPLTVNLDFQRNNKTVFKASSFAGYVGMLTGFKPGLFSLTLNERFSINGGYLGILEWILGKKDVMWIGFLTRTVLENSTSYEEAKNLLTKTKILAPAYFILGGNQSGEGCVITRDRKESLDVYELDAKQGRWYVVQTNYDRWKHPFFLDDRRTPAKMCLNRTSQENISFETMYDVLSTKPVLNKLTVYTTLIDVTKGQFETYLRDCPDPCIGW
Test: Acid ceramidase assay (AC in vitro IC50)
Format: biochemical
Settings: Acid ceramidase assay data of example compounds

pIC50	SMILES
> 6.52	CS(=O)(=O)c1ccc(C(CO)Oc2ccc(-c3cn(C(=O)NCC4CCN(c5ccccc5)C4)cn3)cc2)cc1 (stereo not drawn) [AC2020601-0428, 4-(4-(2-hydroxy-1-(4-(methylsulfonyl)phenyl)ethoxy)phenyl)-N-((1-phenylpyrrolidin-3-yl)methyl)-1H-imidazole-1-carboxamide]
> 6.52	CCS(=O)(=O)c1ccc(COc2ccc(-c3cn(C(=O)NCC4CCN(c5ccccc5)C4)cn3)cc2)c(C#N)c1 (stereo not drawn) [AC2020601-0430, 4-(4-((2-cyano-4-(ethylsulfonyl)benzyl)oxy)phenyl)-N-((1-phenylpyrrolidin-3-yl)methyl)-1H-imidazole-1-carboxamide]
> 6.52	CCS(=O)(=O)c1ccc(COc2ccc(-c3cn(C(=O)NCC4CCN(c5ccccc5)C4)cn3)cc2)c(C(N)=O)c1 (stereo not drawn) [AC2020601-0431, 4-(4-(2-carbamoyl-4-(ethylsulfonyl)benzyloxy)phenyl)-N-((1-phenylpyrrolidin-3-yl)methyl)-1H-imidazole-1-carboxamide]
> 6.52	CN1CCN(c2cccc(COc3ccc(-c4cn(C(=O)NCC5CCN(c6ccccc6)C5)cn4)cc3)c2)CC1=O (stereo not drawn) [AC2020601-0434, 4-(4-(3-(4-methyl-3-oxopiperazin-1-yl)benzyloxy)phenyl)-N-((1-phenylpyrrolidin-3-yl)methyl)-1H-imidazole-1-carboxamide]
> 6.52	O=C(Nc1ccc(COc2ccc(-c3cn(C(=O)NCC4CCN(c5ccccc5)C4)cn3)cc2)cc1)C1CC1 (stereo not drawn) [AC2020601-0437, 4-(4-((4-(cyclopropanecarboxamido)benzyl)oxy)phenyl)-N-((1-phenylpyrrolidin-3-yl)methyl)-1H-imidazole-1-carboxamide]
> 6.52	NC(=O)c1cccnc1COc1ccc(-c2cn(C(=O)NCC3CCN(c4ccccc4)C3)cn2)cc1 (stereo not drawn) [AC2020601-0438, 2-((4-(1-(((1-phenylpyrrolidin-3-yl)methyl)carbamoyl)-1H-imidazol-4-yl)phenoxy)methyl)nicotinamide]
> 6.52	O=C(NCC1CCN(c2ccccc2)C1)n1cnc(-c2ccc(OC3CCc4cc(F)ccc43)cc2)c1 (stereo not drawn) [AC2020601-0439, 4-(4-((5-fluoro-2,3-dihydro-1H-inden-1-yl)oxy)phenyl)-N-((1-phenylpyrrolidin-3-yl)methyl)-1H-imidazole-1-carboxamide]
> 6.52	CS(=O)(=O)c1ccc(COc2ccc(-c3cn(C(=O)NCC4CC(=O)N(c5ccccc5)C4)cn3)cc2)cc1 (stereo not drawn) [AC2020601-0443, 4-(4-((4-(methylsulfonyl)benzyl)oxy)phenyl)-N-((5-oxo-1-phenylpyrrolidin-3-yl)methyl)-1H-imidazole-1-carboxamide]
> 6.52	CS(=O)(=O)c1ccc(COc2ccc(-c3cn(C(=O)NCC4CCN(c5ccccc5)C4)cn3)cc2)cn1 (stereo not drawn) [AC2020601-0444, 4-(4-((6-(methylsulfonyl)pyridin-3-yl)methoxy)phenyl)-N-((1-phenylpyrrolidin-3-yl)methyl)-1H-imidazole-1-carboxamide]
> 6.52	CS(=O)(=O)c1ccc(COc2ccc(-c3cn(C(=O)NCC4CCN(c5ccccc5)C4)cn3)cc2)nc1 (stereo not drawn) [AC2020601-0445, 4-(4-((5-(methylsulfonyl)pyridin-2-yl)methoxy)phenyl)-N-((1-phenylpyrrolidin-3-yl)methyl)-1H-imidazole-1-carboxamide]
> 6.52	Cn1cnc(COc2ccc(-c3cn(C(=O)NCC4CCN(c5ccccc5)C4)cn3)cc2)n1 (stereo not drawn) [AC2020601-0447, 4-(4-((1-methyl-1H-1,2,4-triazol-3-yl)methoxy)phenyl)-N-((1-phenylpyrrolidin-3-yl)methyl)-1H-imidazole-1-carboxamide]
> 6.52	CC(C)n1ccc(COc2ccc(-c3cn(C(=O)NCC4CCN(c5ccccc5)C4)cn3)cc2)n1 (stereo not drawn) [AC2020601-0448, 4-(4-((1-isopropyl-1H-pyrazol-3-yl)methoxy)phenyl)-N-((1-phenylpyrrolidin-3-yl)methyl)-1H-imidazole-1-carboxamide]
> 6.52	CN1CCN(c2cccc(COc3ccc(-c4cn(C(=O)NCC5CN(c6ccccc6)C5)cn4)cc3)c2)CC1=O [AC2020601-0449, 4-(4-(3-(4-methyl-3-oxopiperazin-1-yl)benzyloxy)phenyl)-N-((1-phenylazetidin-3-yl)methyl)-1H-imidazole-1-carboxamide]
> 6.52	N#Cc1cccnc1COc1ccc(-c2cn(C(=O)NCC3CCN(c4ccccc4)C3)cn2)cc1 (stereo not drawn) [AC2020601-0451, 4-(4-((3-cyanopyridin-2-yl)methoxy)phenyl)-N-((1-phenylpyrrolidin-3-yl)methyl)-1H-imidazole-1-carboxamide]
> 6.52	CS(=N)(=O)c1ccc(COc2ccc(-c3cn(C(=O)NCC4CCN(c5ccccc5)C4)cn3)cc2)cc1 (stereo not drawn) [AC2020601-0452, 4-(4-((4-(S-methylsulfonimidoyl)benzyl)oxy)phenyl)-N-((1-phenylpyrrolidin-3-yl)methyl)-1H-imidazole-1-carboxamide]
> 6.52	CS(=O)(=O)c1ccc(COc2ccccc2-c2cn(C(=O)NCC3CN(c4ccccc4)C3)cn2)cc1 [AC2020601-0456, 4-(2-(4-(methylsulfonyl)benzyloxy)phenyl)-N-((1-phenylazetidin-3-yl)methyl)-1H-imidazole-1-carboxamide]
> 6.52	O=C(NCC1CCN(c2ccccc2)C1)n1cnc(-c2ccc(OCc3cccnn3)cc2)c1 (stereo not drawn) [AC2020601-0472, N-((1-phenylpyrrolidin-3-yl)methyl)-4-(4-(pyridazin-3-ylmethoxy)phenyl)-1H-imidazole-1-carboxamide]
> 6.52	CS(=O)(=O)c1ncc(COc2ccc(-c3cn(C(=O)NCC4CCN(c5ccccc5)C4)cn3)cc2)cn1 (stereo not drawn) [AC2020601-0477, 4-(4-((2-(methylsulfonyl)pyrimidin-5-yl)methoxy)phenyl)-N-((1-phenylpyrrolidin-3-yl)methyl)-1H-imidazole-1-carboxamide]
> 6.52	CC(C)n1cncc1COc1ccc(-c2cn(C(=O)NCC3CCN(c4ccccc4)C3)cn2)cc1 (stereo not drawn) [AC2020601-0478, 4-(4-((1-isopropyl-1H-imidazol-5-yl)methoxy)phenyl)-N-((1-phenylpyrrolidin-3-yl)methyl)-1H-imidazole-1-carboxamide]
> 6.52	Cn1nc(C(F)(F)F)cc1COc1ccc(-c2cn(C(=O)NCC3CCN(c4ccccc4)C3)cn2)cc1 (stereo not drawn) [AC2020601-0481, 4-(4-((1-methyl-3-(trifluoromethyl)-1H-pyrazol-5-yl)methoxy)phenyl)-N-((1-phenylpyrrolidin-3-yl)methyl)-1H-imidazole-1-carboxamide]
> 6.52	CCS(=O)(=O)c1ccc(COc2ccc(-c3cn(C(=O)NCC4CCN(c5ccccc5)C4)cn3)cc2)nn1 (stereo not drawn) [AC2020601-0482, 4-(4-((6-(ethylsulfonyl)pyridazin-3-yl)methoxy)phenyl)-N-((1-phenylpyrrolidin-3-yl)methyl)-1H-imidazole-1-carboxamide]
> 6.52	Cn1ncc(COc2ccc(-c3cn(C(=O)NCC4CCN(c5ccccc5)C4)cn3)cc2)n1 (stereo not drawn) [AC2020601-0488, 4-(4-((2-methyl-2H-1,2,3-triazol-4-yl)methoxy)phenyl)-N-((1-phenylpyrrolidin-3-yl)methyl)-1H-imidazole-1-carboxamide]
> 6.52	Cn1cc(COc2ccc(-c3cn(C(=O)NCC4CCN(c5ccccc5)C4)cn3)cc2)nn1 (stereo not drawn) [AC2020601-0489, 4-(4-((1-methyl-1H-1,2,3-triazol-4-yl)methoxy)phenyl)-N-((1-phenylpyrrolidin-3-yl)methyl)-1H-imidazole-1-carboxamide]
> 6.52	Cc1nnc(COc2ccc(-c3cn(C(=O)NCC4CCN(c5ccccc5)C4)cn3)cc2)o1 (stereo not drawn) [AC2020601-0491, 4-(4-((5-methyl-1,3,4-oxadiazol-2-yl)methoxy)phenyl)-N-((1-phenylpyrrolidin-3-yl)methyl)-1H-imidazole-1-carboxamide]
> 6.52	CS(=O)(=O)c1ccc(COc2ccc(-c3cn(C(=O)NCC4CCN(c5cccc(C#N)c5)C4)cn3)cc2)cc1 (stereo not drawn) [AC2020601-0494, N-((1-(3-cyanophenyl)pyrrolidin-3-yl)methyl)-4-(4-(4-(methylsulfonyl)benzyloxy)phenyl)-1H-imidazole-1-carboxamide]
> 6.52	CS(=O)(=O)c1ccc(COc2ccc(-c3cn(C(=O)NCC4CCN(c5cc(F)ccc5F)C4)cn3)cc2)cc1 (stereo not drawn) [AC2020601-0496, N-((1-(2,5-difluorophenyl)pyrrolidin-3-yl)methyl)-4-(4-(4-(methylsulfonyl)benzyloxy)phenyl)-1H-imidazole-1-carboxamide]
> 6.52	CS(=O)(=O)c1ccc(COc2ccc(-c3cn(C(=O)NCC4CCN(c5ccc(F)cn5)C4)cn3)cc2)cc1 (stereo not drawn) [AC2020601-0497, N-((1-(5-fluoropyridin-2-yl)pyrrolidin-3-yl)methyl)-4-(4-((4-(methylsulfonyl)benzyl)oxy)phenyl)-1H-imidazole-1-carboxamide]
> 6.52	CS(=O)(=O)c1ccc(COc2ccc(-c3cn(C(=O)NCC4CCN(c5cccc(C(F)(F)F)c5)C4)cn3)cc2)cc1 (stereo not drawn) [AC2020601-0498, 4-(4-((4-(methylsulfonyl)benzyl)oxy)phenyl)-N-((1-(3-(trifluoromethyl)phenyl)pyrrolidin-3-yl)methyl)-1H-imidazole-1-carboxamide]
> 6.52	Cc1ncc(N2CCC(CNC(=O)n3cnc(-c4ccc(OCc5ccc(S(C)(=O)=O)cc5)cc4)c3)C2)s1 (stereo not drawn) [AC2020601-0499, 4-(4-((4-(methylsulfonyl)benzyl)oxy)phenyl)-N-((1-(2-methylthiazol-5-yl)pyrrolidin-3-yl)methyl)-1H-imidazole-1-carboxamide]
> 6.52	CS(=O)(=O)c1ccc(C(=O)Oc2ccc(-c3cn(C(=O)NCC4CCN(c5ccccc5)C4)cn3)cc2)cc1 (stereo not drawn) [AC2020601-0501, 4-(1-((1-phenylpyrrolidin-3-yl)methylcarbamoyl)-1H-imidazol-4-yl)phenyl 4-(methylsulfonyl)benzoate]
